Usually half-life stands for how long it takes for the measured level to halve. By IC50 is commonly meant the concentration that gives 50% inhibition. A word on the Ki: it is the dissociation constant of the complex between target and ligand, obtained from inhibition or displacement.

Results on four compounds are retold here after patent US20100130581A1, “COMPOUNDS AND METHODS FOR THE TREATMENT OF PAIN” (THE UNIVERSITY OF QUEENSLAND, priority 2006, published 2010).

Data set [1] in a line: Plasma stability assay. The conditions noted are these: male, human, plasma at 37° C. It is filed as in vitro ADME. On the procedure: To measure the enzymatic stability of endomorphin-1 analogs in plasma, blood was taken from a healthy volunteer and the blood was centrifuged at 1700 rpm for 30 minutes to remove blood cells. The plasma was placed into a water bath heated at 37° C. and Endomorphin-1 and analog was added to give final concentrations of 0.7 mg/mL. Samples were incubated for varying time periods between 0 and 180 minutes. 50 μL of sample was taken at each time-point and 75 μL of acetonitrile was added to quench any enzyme activity. The samples were then placed on ice and upon completion of the assay, all samples were centrifuged at 9000 rpm for 3 minutes to remove all precipitated plasma proteins. The amount of intact peptide remaining in the supernatent of each sample was determined using RP HPLC by measuring the area under the curve of the peak at the appropriate retention time compared to a standard curve of concentration for each peptide (see FIG. 8).

Data set [2] has as its system μ- and δ-opioid receptors. Nature of the data set: Cell based assay of cAMP inhibition in forskolin treated SH-SY5Y cells. The conditions noted are these: for Inhibit c-AMP (%): SH-SY5Y cell line, normalised to the % of cAMP inhibition seen by native endomorphin-1. How it is done: SH-SY5Y cells endogenously expressing μ- and δ-opioid receptors were cultured (100 μl) in a 96 well-plate and incubated (usually overnight) until 80% confluent. Once cells were ready for assay, Endo-1, Endo-2 and derivatives/analogs were diluted in DMEM culture medium containing 30 μM forskolin. The diluted derivatised endomorphins or derivatised endomorphin analogs were then applied to separate wells for agonist studies and co-incubated for antagonist studies. Cells were incubated with derivatised endomorphins or derivatised endomorphin analogs at 37° C. for 30 minutes, medium was aspirated and cells were lysed using lysis buffer from a cAMP Biotrak EIA kit (Amersham, Buckinghamshire, UK). An anti-cAMP antibody was added to the lysate, and the mixture incubated at 4° C. for 2 hours followed by the addition of a cAMP peroxidase conjugate, and incubated at 4° C. for a further hour. A 3,3′5,5′-tetramethylbenzidine (TMB) substrate provided by the Biotrak EIA kit was then incubated with cell lysate for 1 hour and finally 1 […] was added to facilitate a colour change, which is proportional to the amount of cAMP captured. A cAMP standard curve from 0 to 3200 fmol was also generated concurrently. Plates were then read by a plate reader at 450 nm and compared back to the cAMP standard curve. All data are compared to the maximum cAMP response to forskolin and are represented as the mean+/−standard error of three experiments performed in triplicate. All data are plotted using PRISM program (GraphPad, San Diego, Calif.) (see FIGS. 2a and 2b).

For data set [3], the system named is homogenate of Caco-2 cells. Nature of the data set: Enzymatic stability study in homogenized Caco-2 cells. It is filed as in vitro ADME. The conditions noted are these: Caco-2 cell line; graded by number of ♦ (up to 5), key not given. On the procedure:
(§1) Approximately 1×10^5 cells/mL concentration of cells were seeded onto the 96 well plate. […] The media was changed every other day. 21-28 days old cells were used for the experiments. the media was removed from the wells and each well washed with 100 μL 0.2% EDTA solution followed by washing three times with Hanks' balanced salt solution (HBSS) containing 25 mM Hepes (pH 7.4). Finally, 100 μL of this buffer was placed in each well and the plate cooled in ice. The monolayer of cells in each well was then disrupted by 2×1 second pulses with a Sonics Vibracell ultrasonic processor set at an amplitude of 30. The cell debris was then removed by centrifugation of the plate at 2000 rpm for 5 min. 80 μL cell homogenate supernatant of each well was then transferred to a clean 96 well plate, and 20 μL of HBSS-Hepes was added. Three of the wells' contents were set aside and assayed for total protein content using the Lowry assay. The compounds to be tested were dissolved in HBSS-Hepes buffer to a concentration of 200 μM.
(§2) This assay was performed at 37° C. […] The stability assay on each compound was conducted in triplicate and the concentrations averaged for each time point.

Assay in data set [4]: as above
It is filed as in vitro ADME. The conditions noted are these: human, pH 7.4; Caco-2 cell homogenate, 37° C., 100 μM. On the procedure:
as §1, §2

For data set [5], the target named is T1, μ-opioid receptor (Homo sapiens, UniProt P35372).
T1 construct: SH-SY5Y cells endogenously expressing μ- and δ-opioid receptors; endogenous in cells; host or cells: SH-SY5Y cells
Nature of the data set: Whole cell-based binding assay, displacement of 3H-DAMGO. On the procedure: Media was removed and cells were washed with PBS before pre-incubation in 300 μL of binding buffer. Binding studies were performed with 100 μL of appropriate concentrations of ^3H-labeled DAMGO (a selective μ-opioid receptor agonist) and 100 μL of competitor or blank in binding buffer at 37° C. for 60 min. Competition binding experiments were performed using […] of ^3H-labelled DAMGO in the absence or presence of increasing concentrations of unlabeled derivatised endomorphins or derivatised endomorphin analogs. A 1 μM excess of unlabelled DAMGO was used to determine non-specific binding. Following incubation, the cells were washed with PBS and recovered from culture plates using 500 μL of […] before transfer to scintillation vials. Liquid scintillation cocktail (Ultima Gold, Packard, Meriden, USA) was added to these vials for counting in a liquid scintillation analyser. Data are expressed as the mean±SEM of % specific binding of triplicate determinations performed on at least three independent plates of cells. Data were plotted using the one-site competition functions of the PRISM program (Graphpad Inc., San Diego, USA) (see FIGS. 1a, 1b and 7).

Data set [6] concerns Caco-2 cells. Nature of the data set: Caco-2 permeability study. How it is done:
Approximately 1×10^6 cells/mL concentration of cells were seeded onto polycarbonate cell culture inserts (Transwell®; 0.45 μm×6.5 mm diameter). DMEM cell culture media was supplemented with 10% FBS, 1% L-glutamine, 1% nonessential amino acids and 1% 100 U/mL penicillin/streptomycin. The media was changed every other day (0.6 mL in the basolateral chamber and 0.1 mL to the apical chamber) and the monolayers were used between days 21-28. Transepithelial electrical resistance (TEER) of the monolayer was measured using the Millicell-ERS system (Millipore Corporation, Bedford, Mass.). C^14-mannitol permeability was used to monitor the integrity of the Caco-2 monolayers.
Prior to beginning the experiments, the monolayers were washed with pre-warmed HBSS-Hepes buffer, incubated for 30 min. At the start of the experiment the apical chamber was emptied and 100 μL of either the derivatised endomorphin or derivatised endomorphin analog solution was added. The permeability study was performed in triplicate at 37° C. shaking in a Heridolf Titramax shaking at 400 rpm. […] Permeability coefficients (Papp) were calculated from data generated by LC/MS quantitative analysis of all samples using a gradient HPLC system (Shimadzu LC-10AT system) coupled to a triple quadrupole mass spectrometer (PE Sciex API 3000) operating in SIM mode with positive ion electrospray. The mobile phase was a mixture of solvent A (0.1% formic acid in water) and solvent B (0.1% formic acid in 90% acetonitrile/water). A C18 column, 5 μM, 50×2.0 mm (Phenomex®) was used at a flow rate 0.3 mL/min with a gradient from 100% A to 90% B in 7 minutes, incorporating a splitter (1:10).
The permeability of the sugars themselves was also examined.

Data set [7] can be described thus: In vivo biodistribution of 3H-labelled peptide, oral. More on the design: species or system rat. The conditions noted are these: rats, oral administration. How it is done:
After 15, 30 and 60 minutes, 5 rats were sacrificed and the brain, liver, blood, kidneys, stomach, spleen, small intestine and large intestine were removed following oral administration. The organs were subsequently homogenised in buffer and a sample removed and placed in tissue solubiliser for 3 days. After this time a small sample was removed and treated with bleach over night to remove any colour from the solution and the resulting sample dissolved in scintillation fluid and the radioactivity measured by liquid scintillation.

Data set [8] in a line: In vivo biodistribution of 3H-labelled peptide, intravenous. Also on record: species or system rat. The conditions noted are these: rats, i.v. On the procedure: FIG. 5(a)-(c) are graphical representations showing in vivo bio-distribution of 1 in rats. […] After 15, 30 and 60 minutes, 5 rats were sacrificed and the brain FIG. 5(a), liver FIG. 5(b) and blood FIG. 5(c) of each rat were removed following intravenous administration. The organs were subsequently homogenised in buffer and a sample removed and placed in tissue solubiliser for 3 days. After this time a small sample was removed and treated with bleach over night to remove any colour from the solution and the resulting sample dissolved in scintillation fluid and the radioactivity measured by liquid scintillation. […] The apparent increase in blood levels of the parent peptide after 60 minutes is likely due to the breakdown of the compound and release of the radiolabeled acetate into the blood stream.

Data set [9] is described as follows: Blood plasma concentration after oral gavage. It is filed as in vivo, rat. Particulars: male rats. On the procedure: In another experiment, Lac-endo was fed via oral gavage to male rats and the concentration of the compound in blood plasma measured over time. Sprague-dawley rats (average wt 300 g) were gavaged with 500 μL of a 20 mM Lac-endo or Endomorphin solution in water. Blood samples taken from the tail vein after 30, 60 and 90 min. The blood was centrifuged to remove red blood cells, and in a 100 μL sample of plasma was added to 300 μL of acetonitrile to precipitate proteins. The suspension was centrifuged a second time and the supernatant analysed by LC-MS.

Where a SMILES comes first, the peptide text is derived from it. [ ]: non-standard residue; d: D form. ξ: configuration not given here. ξAoc(2) = CCCCCCC(N)C(=O)O

T1 sequence (P35372 whole entry): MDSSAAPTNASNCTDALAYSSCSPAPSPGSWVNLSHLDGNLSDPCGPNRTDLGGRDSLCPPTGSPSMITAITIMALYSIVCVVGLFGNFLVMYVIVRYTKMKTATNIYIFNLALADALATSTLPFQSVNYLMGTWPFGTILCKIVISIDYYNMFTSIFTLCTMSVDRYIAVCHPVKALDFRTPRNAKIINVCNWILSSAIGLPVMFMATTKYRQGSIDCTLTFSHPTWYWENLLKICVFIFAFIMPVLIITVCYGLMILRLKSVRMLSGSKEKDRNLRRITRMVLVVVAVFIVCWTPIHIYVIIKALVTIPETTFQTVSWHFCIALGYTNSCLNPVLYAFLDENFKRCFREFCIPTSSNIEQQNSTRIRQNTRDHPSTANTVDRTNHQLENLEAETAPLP

In turn, `Cc1cc(O)cc(C)c1C[C@H](N)C(=O)N1CCC[C@H]1C(=O)N[C@@H](Cc1c[nH]c2ccccc12)C(=O)N[C@@H](Cc1ccccc1)C(N)=O` [(Dmt^1)Endo, reference compound] yielded a half-life at 0.7 mg/mL in data set [1] of 4.18 min. In [2] (Efficacy SH-SY5Y cell line), this compound registered an IC50 of 0.156 nM. Further, the “Inhibit c-AMP (%)” value in data set [2] was found to be 160%. For the same compound, in [3], the “Enzymatic stability 2 h” value is “♦”. In addition, the half-life at 100 μM in data set [4] was 8.98 min. In [5], this compound showed a Ki of 0.058 nM.
Take `CCCCCCC(N)C(=O)N[C@@H](Cc1ccc(O)cc1)C(=O)N1CCC[C@H]1C(=O)N[C@@H](Cc1c[nH]c2ccccc12)C(=O)N[C@@H](Cc1ccccc1)C(N)=O` (stereo partly shown) [Compound 1] (H-[ξAoc(2)]YPWF-NH2): the “Inhibit c-AMP (%)” value in [2] was 97%. Further, the “apparent permeability (Papp), in words” value in [6] (Caco-2 cell monolayers, compared to parent peptide) is “significantly improved apparent permeability compared to the parent peptide”. The “delivery to the brain, in words” value in [7] was “evidence of delivery of the peptide to the brain”. Further, the “increase in serum levels compared to the native peptide” value in data set [7] (over the time of the experiment) was found to be 6 fold. In data set [8], the “accumulation in the liver, in words” value is on record as “accumulate less in the liver than the parent peptide”. In addition, the “label appearing in the brain” value in data set [8] (after 15 minutes) was greater than 10%. In data set [4], this compound registered a half-life of 25.5 min. Further, in data set [5], the Ki worked out at 2.45 nM. Moreover, the “Ki / binding affinity, in words” value in data set [5] (displacement of 3H-DAMGO, FIG. 1) is given as “low nanomolar range”.
On to `NC(=O)[C@H](Cc1ccccc1)NC(=O)[C@H](Cc1c[nH]c2ccccc12)NC(=O)[C@@H]1CCCN1C(=O)[C@H](Cc1ccc(O)cc1)NC(=O)CCC(=O)N[C@@H]1O[C@H](CO)[C@@H](O[C@@H]2O[C@H](CO)[C@H](O)[C@H](O)[C@H]2O)[C@H](O)[C@H]1O` [Compound 12], for which, in data set [6] (Caco-2 monolayers, 20 mM galactose), the “absorption of Lac-endo in presence of galactose” value is “some inhibition of absorption but less than lactose”. In addition, in [6] (Caco-2 monolayers, 20 mM glucose), the “absorption of Lac-endo in presence of glucose” value is listed as “doesn't inhibit the absorption”. Besides, the “absorption of Lac-endo in presence of lactose” value in data set [6] (Caco-2 monolayers, 20 mM lactose) is on record as “severely inhibits the absorption”. In data set [9] (Sprague-Dawley, rat, plasma, 10 µmol/rat, read-out: time of highest recorded concentration in blood (converted)), the Tmax is 1 h. Besides, the “absorption across the GI tract, in words” value in [9] (500 μL of 20 mM solution) is reported as “significant absorption of the compound across the GI tract”.
On to `NC(=O)[C@H]1O[C@@H](NC(=O)[C@H](Cc2ccccc2)NC(=O)[C@H](Cc2c[nH]c3ccccc23)NC(=O)[C@@H]2CCCN2C(=O)[C@@H](N)Cc2ccc(O)cc2)[C@H](O)[C@@H](O)[C@@H]1O` [Compound 18], for which the Permeability result in data set [6] (Caco-2 cell line, graded by number of ♦ (up to 5), key not given) is on record as “♦”. In [3], the “Enzymatic stability 2 h” value is reported as “♦”.
